Data from patent US20120196901A1, “TERTIARY AMIDE OREXIN RECEPTOR ANTAGONISTS” (Merck Sharp & Dohme Corp., priority 2009, published 2012).

Target: T1, OX2R (Homo sapiens, UniProt O43614)
T1 construct: expressed in transfected cells; host or cells: CHO cells (membranes)
T1 sequence (O43614 1-444): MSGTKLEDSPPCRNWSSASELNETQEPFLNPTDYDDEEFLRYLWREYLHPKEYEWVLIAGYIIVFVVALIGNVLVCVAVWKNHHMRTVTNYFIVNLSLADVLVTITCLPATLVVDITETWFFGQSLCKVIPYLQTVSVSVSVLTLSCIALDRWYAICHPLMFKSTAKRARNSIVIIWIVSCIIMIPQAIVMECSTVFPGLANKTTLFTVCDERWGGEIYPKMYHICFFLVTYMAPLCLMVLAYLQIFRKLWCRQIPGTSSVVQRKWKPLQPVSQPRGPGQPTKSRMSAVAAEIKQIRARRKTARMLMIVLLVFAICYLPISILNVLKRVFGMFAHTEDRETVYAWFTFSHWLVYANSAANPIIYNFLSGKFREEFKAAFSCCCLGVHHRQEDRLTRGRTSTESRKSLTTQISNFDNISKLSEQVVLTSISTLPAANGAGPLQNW
Assay: radioligand binding assay, membranes prepared from CHO cells expressing the OX2 receptor
Experimental: The utility of the compounds in accordance with the present invention as orexin receptor OX1R and/or OX2R antagonists may be readily determined without undue experimentation by methodology well known in the art, including the “FLIPR Ca^2+ Flux Assay” (Okumura et al., Biochem, Biophys. Res. Comm. 280:976-981, 2001). In a typical experiment the OX1 and OX2 receptor antagonistic activity of the compounds of the present invention was determined in accordance with the following experimental method. […] Within the Fluorescent Imaging Plate Reader (FLIPR, Molecular Devices), test compounds are added to the plate in a volume of 25 ul, incubated for 5 min and finally 25 ul of agonist is added. Fluorescence is measured for each well at 1 second intervals for 5 minutes and the height of each fluorescence peak is compared to the height of the fluorescence peak induced by 70 pM Ala-6,12 orexin-A with buffer in place of antagonist. For each antagonist, […] value (the concentration of compound needed to inhibit 50% of the agonist response) is determined. Alternatively, compound potency can be assessed by a radioligand binding assay (described in Bergman et. al. Bioorg. Med. Chem. Lett. 2008, 18, 1425-1430) in which the inhibition constant (ki) is determined in membranes prepared from CHO cells expressing either the OX1 or OX2 receptor. […]

Ki [nM]	SMILES
0.27	COc1ccc(CCN(C(=O)c2cccc(C)n2)C(C)CCc2ccccc2)nc1OC (centres unmarked) [Cmp 2-3, N-[2-(5,6-Dimethoxy-2-pyridinyl)ethyl]-6-methyl-N-(1-methyl-3-phenylpropyl)-2-pyridinecarboxamide]
0.14	COc1cccc(C(=O)N(CCc2ccc(OC)c(OC)n2)C(C)CCc2ccccc2)n1 (centres unmarked) [Cmp 2-13, N-[2-(5,6-dimethoxypyridin-2-yl)ethyl]-6-methoxy-N-(4-phenylbutan-2-yl)pyridine-2-carboxamide]
